According to patent US10799561B2, “Method for increasing cardiac inflow by administering a compound that binds RXFP1” (Relaxera Pharmazeutische Gesellschaft GmbH & Co. KG, priority 2014, dated 2020):
Entries after “also recorded” stand apart in the source; their conditions may differ. One block for each compound: values may come before it. Ends that are not written are not given here.

Key:
[1] = tested on: mice with diastolic heart failure and controls; test: subcutaneous infusion of relaxin in mice with diastolic dysfunction; format: in vivo
Method: The present inventors have therefore used an animal model for testing the treatment for DHF and of a stiffened heart muscle having insufficient relaxation and distensibility. The table below summarizes data obtained in mice with a type of diastolic heart failure as compared with controls. The subcutaneous infusion of isolated porcine relaxin over 12 weeks in mice (50 μg porcine relaxin/kg/d) decreased end-diastolic pressure and, consequently, improved E/A ratio, a functional parameter indicating the quality of ventricular filling. The subcutaneous infusion of relaxin was obtained by implanting in the neck portion of the mice a membrane capsule releasing continuously porcine relaxin.

RXFP1 = target: T1, RXFP1 (Homo sapiens, UniProt Q9HBX9); test: cAMP reporter gene assay in HEK-293T cells stably expressing RXFP1; format: cell-based; details: in words
T1 construct: expressed in transfected cells; host or cells: HEK-293T cells stably transfected with RXFP1
T1 sequence (Q9HBX9 1-757): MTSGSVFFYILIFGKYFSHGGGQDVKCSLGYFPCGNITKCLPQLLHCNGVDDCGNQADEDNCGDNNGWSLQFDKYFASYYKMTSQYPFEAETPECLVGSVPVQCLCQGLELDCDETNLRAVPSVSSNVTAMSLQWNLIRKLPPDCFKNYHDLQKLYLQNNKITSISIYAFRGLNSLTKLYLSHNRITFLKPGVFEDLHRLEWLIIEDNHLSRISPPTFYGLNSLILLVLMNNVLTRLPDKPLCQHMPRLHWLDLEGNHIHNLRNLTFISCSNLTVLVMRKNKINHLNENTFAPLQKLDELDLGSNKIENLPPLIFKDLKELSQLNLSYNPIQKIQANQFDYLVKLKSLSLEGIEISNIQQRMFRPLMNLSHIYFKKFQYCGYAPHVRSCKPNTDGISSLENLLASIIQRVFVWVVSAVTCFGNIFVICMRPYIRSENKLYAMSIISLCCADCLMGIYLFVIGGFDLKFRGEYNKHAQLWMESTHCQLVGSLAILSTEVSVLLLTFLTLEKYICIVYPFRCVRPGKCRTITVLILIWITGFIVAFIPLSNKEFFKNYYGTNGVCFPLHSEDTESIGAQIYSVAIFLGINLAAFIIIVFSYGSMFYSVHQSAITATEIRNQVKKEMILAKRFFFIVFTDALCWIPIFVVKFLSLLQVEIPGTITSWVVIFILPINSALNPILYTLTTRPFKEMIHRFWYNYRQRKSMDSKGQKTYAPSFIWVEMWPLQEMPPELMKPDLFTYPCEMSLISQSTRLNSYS
Method: Stimulation of the RXFP1 receptor results in the activation of adenylate cyclase and therefore in an increase in cAMP. […] Each concentration point was performed in triplicate and peptides were tested in at least three independent experiments. Data were analyzed with GraphPad Prism 4.0 (GraphPad Software, San Diego, Calif., USA), and a nonlinear regression sigmoidal dose-response (variable slope) model was used to plot curves and calculate pEC50 values.

[2] = tested on: patients with heart failure; details: intravenous infusion, hemodynamic monitoring; cited from earlier work
[3] = control mice, 50 μg/kg/d s.c. infusion, 12 weeks, mean ± SEM
[4] = mice with diastolic dysfunction, 50 μg/kg/d s.c. infusion, 12 weeks, mean ± SEM

Compound: porcine relaxin (Relaxin B chain QSTNDFIKACGRELVRLWVEICGSVSWGRTAL; Relaxin A chain RMTLSEKCCQVGCIRKDIARLC; not fully specified; ends and bridges not checked; UniProt P01348 25-56; P01348 161-182, looked up) [isolated porcine relaxin, released continuously from an implanted membrane capsule]
- E/A ratio [1, 3]: 2.4 ± 0.2
- LVEDP, left ventricular end-diastolic pressure [1, 3]: 5.2 ± 0.5 mm Hg
- LVSP, left ventricular systolic pressure [1, 3]: 109 ± 10 mm Hg
- effect on heart function in controls ([1]; control mice, in words): no pharmaceutical effects were noted
- E/A ratio ([1]; mice with diastolic dysfunction, 50 μg/kg/d s.c. over 12 weeks, in words): improved; also recorded: dramatically shifted back to the normal range
- E/A ratio [1, 4]: 2.0 ± 0.2
- LVEDP, left ventricular end-diastolic pressure [1, 4]: 7.0 ± 0.6 mm Hg
- LVSP, left ventricular systolic pressure [1, 4]: 111 ± 12 mm Hg
- end-diastolic pressure ([1]; mice, 50 μg/kg/d s.c. over 12 weeks, in words): decreased

- biological activity of the by-product (RXFP1): biologically fully active
Compound: CC[C@H](C)[C@@H]1NC(=O)[C@H](C)NC(=O)[C@H]([C@@H](C)CC)NC(=O)[C@H](CCC(N)=O)NC(=O)[C@H](C)NC(=O)[C@H](CCCNC(=N)N)NC(=O)[C@H](C(C)C)NC(=O)[C@H](CC(C)C)NC(=O)[C@H](CCC(=O)O)NC(=O)[C@H](CCCNC(=N)N)NC(=O)CNC(=O)[C@@H](NC(=O)[C@H](CC(C)C)NC(=O)[C@H](CCCCN)NC(=O)[C@@H](NC(=O)[C@@H](NC(=O)[C@H](CCC(=O)O)NC(=O)[C@H](CCC(=O)O)NC(=O)[C@H](CCSC)NC(=O)[C@H](Cc2c[nH]c3ccccc23)NC(=O)[C@@H](N)CO)C(C)C)[C@@H](C)CC)CSSC[C@@H]2NC(=O)[C@@H](NC(=O)[C@H](CCCCN)NC(=O)[C@H](CC(N)=O)NC(=O)[C@H](C)NC(=O)[C@H](CC(C)C)NC(=O)[C@H](C)NC(=O)[C@H](CO)NC(=O)[C@H](Cc3ccc(O)cc3)NC(=O)[C@H](CC(C)C)NC(=O)[C@@H]3CCC(=O)N3)CSSC[C@H](NC(=O)CNC(=O)[C@H](C(C)C)NC(=O)[C@H](Cc3c[nH]cn3)NC2=O)C(=O)N[C@@H]([C@@H](C)O)C(=O)N[C@@H](CCCCN)C(=O)N[C@@H](CCCNC(=N)N)C(=O)N[C@@H](CO)C(=O)N[C@@H](CC(C)C)C(=O)N[C@@H](C)C(=O)N[C@@H](CCCNC(=N)N)C(=O)N[C@@H](Cc2ccccc2)C(=O)N[C@H](C(=O)O)CSSC[C@@H](C(=O)NCC(=O)N[C@@H](CCSC)C(=O)N[C@@H](CO)C(=O)N[C@H](C(=O)N[C@@H](Cc2c[nH]c3ccccc23)C(=O)N[C@@H](CO)C(=O)O)[C@@H](C)O)NC1=O [-Asp-shRlx]

Compound: recombinant human relaxin-2 [rhRlx]
- cardiac index [2]: trends toward increases
- pulmonary wedge pressure [2]: decreases
